Measurements as given in patent US20240335644A1, “TREATMENT OF A DISEASE OF THE GASTROINTESTINAL TRACT WITH AN IMMUNE MODULATORY AGENT RELEASED USING AN INGESTIBLE DEVICE” (BIORA THERAPEUTICS, INC., priority 2017, published 2024).

What was measured:
[1] = Tissue, plasma, rectal and GI content pharmacokinetics of tacrolimus, oral vs intra-cecal ingestible device (Example 10); parameters: species or system Yorkshire-Cross farm swine; conditions: in vivo
Method: (§1) No further randomization procedure was employed.
Animals in Group 1 received an ingestible device containing 0.8 mL of vehicle solution (8000 alcohol, 2000 HCO-60). Animals in Group 2 received orally […] liquid formulation of tacrolimus at 4 mg/0.8 mL per animal (Prograf: 5 mg/mL). Animals in Group 3 received intra-cecally an ingestible device containing tacrolimus at 1 mg in 0.8 mL per ingestible device. Animals in Group 4 received intra-cecally an ingestible device containing tacrolimus at 2 mg in 0.8 mL per ingestible device. Animals in Group 5 received intra-cecally an ingestible device containing tacrolimus at 4 mg in 0.8 mL per ingestible device. To control for potential confounding effects of the surgery, all groups fast on Day −11 at least 24 hr before being subjected to anesthesia followed by surgical placements of a cecal port by a veterinary surgeon at Day −10. All animals were fasted for at least 12 hr prior to dosing on Day 1. Animals were dosed via either intra-cecal dosing (IC) or oral dosing (PO) at Day 1 (between 6-8 p.m.). All animals resumed feeding at approximately 4 hours after dose (11-12 p.m. after dosing).
Animals in Group 1 (Vehicle Control) were administered a single intra-cecal ingestible device containing 0.8 mL Vehicle solution (80% alcohol, 20% castor oil (HCO-60) on Day 1. On Day −10 the animals were anesthetized, and a veterinary surgeon surgically placed an intra-cecal port in each animal. On Day 1, each animal was placed into a sling then a single intra-cecal ingestible device containing 0.8 mL vehicle solution (80% alcohol, 20% castor oil (HCO-60)) is introduced by the veterinary surgeon into the cecum via the cecal port in each animal. Following ingestible device placement, the animals were removed from the slings and placed back into their pens with water. All animals resumed feeding at approximately 4 hours after dose. […] A total of 60 samples were collected.
Approximately 200-400 mg of rectal content were collected, if available, with a fecal swab (Copan Diagnostics Nylon Flocked Dry Swabs, 502CS01). The fecal swab was pre-weighed and weighed after collection in the collection tube (Sterile Tube and Cap No Media, PFPM913S), and the sample weight was recorded. […]
For tissue necropsy, small intestine fluid and cecal fluid were collected separately from all the animals into two separate square plastic bottles, and stored at −20° C. The length and diameter of the cecum and the colon was measured from one animal in each group and recorded for reference. […] All samples were weighed, and the tissue sample weights were recorded. […] Around 3 grams of the total punched sample were collected into a pre-weighed 15-mL conical tube, and the tissue weight was recorded. […]

[2] = Pharmacokinetic study of oral vs intra-cecal tacrolimus: blood, rectal content, GI tissue and luminal content, tissue/plasma ratios (Example 13); parameters: species or system Yorkshire-Cross farm swine; conditions: female, Yorkshire-Cross, swine, in vivo, 0.09 mg/kg
Description: as §1

## C=CC[C@@H]1/C=C(\C)C[C@H](C)C[C@H](OC)[C@H]2O[C@@](O)(C(=O)C(=O)N3CCCC[C@H]3C(=O)O[C@H](/C(C)=C/[C@@H]3CC[C@@H](O)[C@H](OC)C3)[C@H](C)[C@@H](O)CC1=O)[C@H](C)C[C@@H]2OC [tacrolimus]
[1]
  luminal content (spiral, transverse, and distal colon) concentrations: Significantly higher
  mean concentration of tacrolimus in the cecum tissue and the proximate colon tissue: higher
  tissue (spiral and transverse colon) concentrations: Significantly higher
[1]; po
  level of tacrolimus in tissue: No measurable level
[2]; 12 h
  Ratio Tissue(mean) (ng/g)/AUG(0-12 hr) (ng · hr/ml): 0
  Ratio Tissue(mean) (ng/g)/Trough(12 hr)(ng/ml): 0
  Trough (12 hr): 0.568 ng/mL
[2]; Trough (12 hr)
  concentration at 12 h: 0.568 ± 0.291 ng/mL
